Consider two compounds from patent US20160367708A1, “COMPOSITIONS AND METHODS OF TREATING CANCER” (THE JOHNS HOPKINS UNIVERSITY, priority 2013, published 2016).

Data set [1] relates to mouse BALB/c CRL2836 cell line or the human HeLa cell line. Put plainly: WST-1 cell proliferation assay, ^32P taken up from the medium versus ^32P held in tubes (electron bombardment only). The format is cell-based. The settings on record: isotope added directly to the medium for 1 day, compared with isotope kept in tubes in the wells; followed up to six days. How it is done:
FIG. 1. A cell proliferation assay using WST-1 was performed to assess the relative cell killing ability of ^32Pmonophosphate that is taken up by cells into the DNA versus that which is not taken up by the cells, but subjected only to electron bombardment.
Measurement of In Vitro Cell Killing by ^32P Radioisotope. Two thousand cells of the mouse BALB/c CRL2836 cell line or the human HeLa cell line were growing in complete medium in wells of a 96-well plate and were exposed to either 0 uCi, 3 uCi or 10 uCi of the [^32P]pyrophosphate or the [^32P]monophosphate radioisotopes. One set of triplicate wells contained medium with the designated form of the isotope, while another set of triplicate wells had the isotope contained in small tubes placed in the wells. […] After a 24 hour exposure time, fresh non-radioactive medium was added and WST-1 proliferation assays were done at several subsequent time points.
To assess the relative cell killing ability of [^32P]monophosphate that is taken up by cells into the DNA versus that of is not taken up by the cells, but subjected only to electron bombardment, a cell proliferation assay using WST-1 was undertaken (FIG. 1). […]

The test system of data set [2] is BALB/c tumor CRL2836 cells. Put plainly: WST-1 cell proliferation assay, [^32P]PO4 versus ^90Y. The format is cell-based, mouse. How it is done:
(§1) FIG. 2. Inhibition of cell growth by [^32P]PO4 or [^90Y]. The WST-1 proliferation assay was done to determine the level of cell kill by ^32P or by ^90Y. BALB/c tumor CRL2836 cells or HeLa cells were exposed to 0 Ci, 1 μCi, 2.5 μCi, or 5 μCi in complete medium. After 24 hours, the radioactivity was removed and cells were grown in non-radioactive complete medium. WST-1 cell proliferation assays were done at Days 1, 2, 3, 4, and 5 and all assays were done in triplicate. The mean is shown plus/minus the standard deviation. The student's two-sided t-test determined the P value shown.
(§2) Measurement of in vitro cell killing by ^32P and ^90Y. Two thousand cells of the mouse BALB/c CRL2836 cell line or the human HeLa cell line were grown in complete medium in a 96-well plate and at Day 0 were exposed to either 0, 1, 2.5, or 5 μCi of ^90Y radioisotope or the [^32P]PO4 radioisotope in complete medium. After a 24 h incubation, the radioisotope-containing medium was removed and replaced with non-radioactive complete medium (Day 1). […]
(§3) Statistical analysis. The data from the WST-1 cell proliferation are presented as means±standard deviation and the significance was determined using the unpaired Student's t test. […] The significance was determined using the unpaired Student's t test.
Background: Tetrazolium assays rely on reduction of a dye to a coloured formazan, in cell work by metabolically active cells.

For data set [3], the system named is HeLa cells. The data set is described as above. The format is cell-based, human. How it is done: as §1, §2, §3
Data set [4] concerns HeLa cells. Put plainly: H2AX immunostain assay of double-strand DNA breaks, ^32P versus ^90Y. The format is cell-based, human. The settings on record: 3 μCi for 24 h, Day 1, 2 or 3. How it is done:
FIG. 4. Determination of double-strand DNA breaks in cells caused by exposure to [^32P]PO4 or ^90Y. HeLa cells or mouse BALB/c CRL2836 cells were grown in multiple sections of chamber slides and exposed to 0 μCi or 3 μCi of [^32P]PO4 or ^90Y in complete medium at Day 0. After 24 hours, the radioactivity was removed and cells were grown in non-radioactive complete medium. At Day 1, 2, or 3 the presence of double-strand DNA breaks in the cells was determined by staining for phosphorylated H2-AX histones which indicate double-strand DNA damage.
Assessment of Double-Strand DNA Breaks by ^32P and ^90Y. Ten thousand HeLa cells were seeded in Lab-TekII chamber slides (Thermo Fisher Scientific Inc., Waltham, Mass.). At Day 0 cells were treated with 0 or 3 μCi of ^32P or ^90Y in complete medium. At Day 1, all wells were gently washed and fresh non-radioactive medium was added. At Day 1, Day 2, or Day 3, cells were fixed with 10% formalin at room temperature for 10 min, washed with PBS for two min, and permeabilized with 0.2% Triton X-100 with 10% FBS in PBS for 15 min. After a rinse with PBS, primary mouse anti-human H2AX antibody with 1:1000 dilution (Millipore, Billerica, Mass.) was incubated for 1 h at ambient temperature, and washed twice with PBS for 5 min. […]

The test system of data set [5] is Syngeneic BALB/c CRL2836 tumors. Kind of data set: ^32P-mediated tumor growth inhibition in syngeneic BALB/c mice. The format is in vivo, mouse. The settings on record: for inhibition of established syngeneic tumor growth: single IV injection of 5 μCi ten days after tumor cell injection. The text has this:
FIG. 5. Inhibition of BALB/c syngeneic tumor growth by [^32P]PO4. Syngeneic BALB/c CRL2836 tumors were established in the rear flanks of BALB/c mice at Day 0. After ten days during which the tumors became well vascularized, mice received an injection of 5 μCi of [^32P]PO4 intra-venously via the tail vein. The tumor volumes are shown as the mean of six tumors plus/minus the standard error of the mean. The student's two-sided t-test determined the P value shown.
Establishment of mouse tumors. Syngeneic BALB/c mouse tumors were established by injecting 2×10^6 BALB/c tumor CRL2836 cells ([…], Manassas, Va.) in a volume of 0.2 mL (50% Matrigel, 50% 1×PBS) subcutaneously in the left rear and right rear flank. All mice were female, 10 weeks of age, and purchased from Charles River Laboratories (Wilmington, Mass.).
^32P-Mediated tumor growth inhibition. After ten days, during which time well-vascularized tumors were established, an injection of 5 μCi of the monophosphate form of ^32P (Perkin-Elmer, Cat. # NEX06000) was injected intravenously via the tail vein in 0.1 mL of 1×HBSS. Six tumors (three animals) were studied in each group. After injection, tumor growth was measured three times per week with a digital caliper and the volume was determined using the formula: volume=½(width)^2×(length).
Statistical analysis. The data from the WST-1 cell proliferation are presented as means±standard deviation and the significance was determined using the unpaired Student's t test. The tumor volumes of the untreated and treated mice are shown as means±SE and no outliers were excluded for any reason. The significance was determined using the unpaired Student's t test.

Data set [6] relates to HeLa cell xenografts. The following applies: applicants' earlier work, cited from earlier work; for inhibition of xenograft tumor growth: nude mice, single low-dose IV injection.
Where [7] appears, read: 24 h exposure to identical amounts of isotope.

Take `O=[32P](O)(O)O` [[^32P]PO4, ^32P monophosphate]: in data set [1], the “cell death as monitored by the lack of cell growth” value is on record as “far greater levels of cell death”. Further, the “survival rates at Day 5 relative to ^90Y” value in data set [2] (2.5 μCi and 5 μCi doses, Day 5) is recorded as “barely half of those produced by ^90Y”; in data set [3] (2.5 μCi and 5 μCi doses, Day 5) it was “barely half of those produced by ^90Y”. The “cell killing efficiency compared with ^90Y” value in data set [2] (setting [7]) and in data set [3] (setting [7]) was “killed cells more efficiently than did ^90Y” each time. Further, in data set [4], the “double-strand DNA breakage (nuclear staining for phosphorylated H2AX)” value is recorded as “significant, time-dependent double-strand DNA breakage”. Besides, the “effects on the health of the mice (weight gain, overall activity levels)” value in data set [5] (single IV injection of 5 μCi) is “no apparent detrimental effects”. The “inhibition of established syngeneic tumor growth” value in data set [5] was “significantly inhibited”; in data set [5] (listed as 32P), “strongly and effectively inhibited tumor growth”. Besides, in data set [6], the “inhibition of xenograft tumor growth” value was “strongly and effectively inhibited tumor growth”. Moreover, in data set [6] (xenografted nude mice), the “detrimental effects (weight gain, general activity, overall health)” value is “no apparent detrimental effects”.

As to [^32P]ATP, the “inhibition of xenograft tumor growth” value in data set [6] was “significant inhibition”.
